Data on 17 compounds can be found in patent US10766884B2 (Pfizer Inc., priority 2018, dated 2020).

What is called Ki is a measure of affinity in units of concentration, obtained from inhibition or displacement. In general, IC50 refers to the concentration that gives 50% inhibition.

In one experiment the target is CDK4/Cyclin D1 (Homo sapiens (Human), UniProt P11802). The experiment is described as follows: CDK4/Cyclin D1 mobility shift assay. It is filed as biochemical. To be noted: activated CDK4/Cyclin D1, 3.5 mM ATP, Morrison fit; read-out: CDK4D1 Ki. As for the experimental part: The purpose CDK4/Cyclin D1 assay is to evaluate the inhibition (% inhibition, Kiapp and Ki values) in the presence of small molecule inhibitors by using a fluorescence based microfluidic mobility shift assay. […] The mobility shift assay electrophoretically separates the fluorescently labeled peptides (substrate and phosphorylated product) following the kinase reaction. Both substrate and product are measured and the ratio of these values is used to generate % Conversion of substrate to product by the LabChip EZ Reader.
The reaction was stopped after 195 minutes by the addition of 50 μL of 30 mM EDTA. Ki determinations were made from a plot of the fractional velocity as a function of inhibitor concentration fit to the Morrison equation with the enzyme concentration as a variable.
(§1) For CDK4 and CDK6 mobility shift assays, see also Morrison, J. F. (1969) Kinetics of the reversible inhibition of enzyme-catalysed reactions by tight-binding inhibitors, Biochimica et biophysica acta 185, 269-286; and Murphy, D. J. (2004) Determination of accurate KI values for tight-binding enzyme inhibitors: an in silico study of experimental error and assay design, Analytical biochemistry 327, 61-67.

A further experiment has as its target CDK6/Cyclin D3 (Homo sapiens (Human), UniProt Q00534). The experiment is described as follows: CDK6/Cyclin D3 mobility shift assay. It is filed as biochemical. The note with it: activated CDK6/Cyclin D3, 3.5 mM ATP, Morrison fit; read-out: CDK6_D3 Ki. The procedure:
The purpose of the CDK6/Cyclin D3 assay is to evaluate the inhibition (% inhibition, Kiapp and Ki values) in the presence of small molecule inhibitors by using a fluorescence based microfluidic mobility shift assay. […] The mobility shift assay electrophoretically separates the fluorescently labeled peptides (substrate and phosphorylated product) following the kinase reaction. Both substrate and product are measured and the ratio of these values is used to generate % conversion of substrate to product by the LabChip EZ Reader.
The reaction was stopped after 95 minutes by the addition of 50 μL of 30 mM EDTA. Ki determinations were made from a plot of the fractional velocity as a function of inhibitor concentration fit to the Morrison equation with the enzyme concentration as a variable.
as §1

The target in a further experiment is CDK4 (Homo sapiens (Human), UniProt P11802). Briefly: Phospho-Serine 795 Rb ELISA assay in JEKO-1 cells. It is filed as cell-based. To be noted: overnight treatment, phospho-Rb S795, read-out: CDK4 pRB S795 ELISA JEKO-1 cells IC50. The procedure: (§2) JEKO-1 or MV4-11 cells were seeded at 15,000 or 20,000 cells per well, respectively, in 100 μL growth media and allowed to incubate at 37° C. with 5% CO2 overnight. The following day, compounds were serially diluted from a 10 mM top dose for an 11-point 3-fold dilution curve in DMSO. Compounds were intermediately diluted 1:200 into growth media prior to diluting 1:5 on cells for final concentration 10 μM to 0.1 nM in 0.1% DMSO on cells. JEKO-1 and MV4-11 cells were treated were treated overnight, at 37° C. with 5% CO2. Cells were lysed in 100 μL/well CST lysis buffer on ice and transferred to pre-coated and blocked anti-phospho-Ser795 Rb ELISA plates for overnight incubation at 4° C. Plates were washed to remove residual, unbound cellular proteins and total Rb detection antibody added for 90 minutes at 37° C. Following wash to remove unbound total Rb antibody, the HRP tagged antibody was allowed to bind for 30 minutes at 37° C. Following wash to remove unbound HRP antibody, Glo Substrate Reagent was added and incubated protected from light for 5 to 10 minutes. Plates were read in luminescence mode and IC50 values calculated.
A general note: ELISA stands for enzyme-linked immunosorbent assay.

The target of another experiment is CDK6 (Homo sapiens (Human), UniProt Q00534). The experiment is described as follows: Phospho-Serine 795 Rb ELISA assay in MV4-11 cells. The note with it: overnight treatment, phospho-Rb S795, read-out: CDK6 pRB S795 ELISA MV4-11 cells IC50. It is filed as cell-based. As for the experimental part:
as §2

Each structure is given as a SMILES string. Where a name gives a salt, the structure may show the parent alone.

Chain of CDK6/Cyclin D3 (Q00534 whole entry): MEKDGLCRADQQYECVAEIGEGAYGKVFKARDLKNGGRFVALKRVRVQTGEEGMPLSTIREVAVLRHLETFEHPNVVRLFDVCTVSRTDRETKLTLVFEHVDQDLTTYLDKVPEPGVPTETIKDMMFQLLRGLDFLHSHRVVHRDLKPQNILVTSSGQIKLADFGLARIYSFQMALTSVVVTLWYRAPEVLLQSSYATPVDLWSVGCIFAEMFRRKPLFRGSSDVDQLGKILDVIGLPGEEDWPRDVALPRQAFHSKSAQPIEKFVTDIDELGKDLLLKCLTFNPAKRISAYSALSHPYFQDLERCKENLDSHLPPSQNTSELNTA
Chain of CDK6/Cyclin D3 (P30281 whole entry partner): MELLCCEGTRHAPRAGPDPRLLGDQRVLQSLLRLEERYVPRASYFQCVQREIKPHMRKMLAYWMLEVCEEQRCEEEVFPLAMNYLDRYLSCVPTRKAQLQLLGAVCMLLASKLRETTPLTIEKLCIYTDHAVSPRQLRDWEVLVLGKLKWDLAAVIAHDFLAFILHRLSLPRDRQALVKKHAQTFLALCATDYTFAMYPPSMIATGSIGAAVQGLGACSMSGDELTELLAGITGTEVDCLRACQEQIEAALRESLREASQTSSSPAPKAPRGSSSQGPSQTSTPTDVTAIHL
Chain of CDK6 (Q00534 whole entry): as the sequence (Q00534 whole entry) above
Chain of CDK6 (P30281 whole entry partner): as the sequence (P30281 whole entry partner) above
Chain of CDK4/Cyclin D1 (P11802 whole entry): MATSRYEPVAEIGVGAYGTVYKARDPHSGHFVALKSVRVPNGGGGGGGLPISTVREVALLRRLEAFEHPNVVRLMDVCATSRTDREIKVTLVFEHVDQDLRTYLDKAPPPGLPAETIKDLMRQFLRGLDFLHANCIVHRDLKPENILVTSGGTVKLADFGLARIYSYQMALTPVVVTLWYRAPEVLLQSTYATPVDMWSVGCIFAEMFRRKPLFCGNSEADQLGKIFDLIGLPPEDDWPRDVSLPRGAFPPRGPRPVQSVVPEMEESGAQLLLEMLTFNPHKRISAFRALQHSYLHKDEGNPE
Chain of CDK4/Cyclin D1 (P24385 whole entry partner): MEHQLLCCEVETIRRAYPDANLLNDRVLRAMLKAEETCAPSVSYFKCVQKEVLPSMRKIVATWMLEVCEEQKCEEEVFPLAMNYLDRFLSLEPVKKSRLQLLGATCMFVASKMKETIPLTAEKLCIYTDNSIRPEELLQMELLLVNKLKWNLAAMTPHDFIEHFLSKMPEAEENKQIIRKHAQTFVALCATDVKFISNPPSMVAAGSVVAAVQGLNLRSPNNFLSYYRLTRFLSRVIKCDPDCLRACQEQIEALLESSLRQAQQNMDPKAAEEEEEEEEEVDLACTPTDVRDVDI
Chain of CDK4 (P11802 2-303): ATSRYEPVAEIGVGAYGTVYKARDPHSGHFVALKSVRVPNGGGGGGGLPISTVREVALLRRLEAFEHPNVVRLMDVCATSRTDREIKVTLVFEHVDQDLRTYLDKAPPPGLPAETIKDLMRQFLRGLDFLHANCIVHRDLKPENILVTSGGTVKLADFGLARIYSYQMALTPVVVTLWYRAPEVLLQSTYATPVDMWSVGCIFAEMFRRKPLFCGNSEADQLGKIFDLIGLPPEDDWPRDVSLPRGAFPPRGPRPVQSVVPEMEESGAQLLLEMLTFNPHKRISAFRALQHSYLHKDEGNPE
Chain of CDK4 (P24385 whole entry partner): as the sequence (P24385 whole entry partner) above

With `C[C@H]1COCc2nc3c(F)cc(-c4nc(N[C@@H]5CCN(S(C)(=O)=O)C[C@H]5O)ncc4Cl)cc3n21` [Example A10], the Ki was 0.6 nM at CDK4/Cyclin D1 and 10.4 nM on CDK6/Cyclin D3. Besides, the results for the IC50 at CDK4 and at CDK6 were 72.7 nM and 195 nM, respectively.

As for `Cc1nc2c(F)cc(-c3nc(N[C@@H]4CCOC[C@H]4O)ncc3Cl)cc2n1C(C)(C)CN` [Example A52, 3-({4-[1-(1-amino-2-methylpropan-2-yl)-4-fluoro-2-methyl-1H-benzimidazol-6-yl]-5-chloropyrimidin-2-yl}amino)-1,5-anhydro-2,3-dideoxy-D-threo-pentitol], the Ki at CDK4/Cyclin D1 was determined as 2.7 nM; at CDK6/Cyclin D3, 60.1 nM. The figures for the IC50 at CDK4 and on CDK6 were 202 nM and 973 nM, respectively.

As for `CC(C)n1c(CO)nc2c(F)cc(-c3nc(N[C@@H]4CCN(S(C)(=O)=O)C[C@H]4O)ncc3Cl)cc21` [Example A87, (3R,4R)-4-({5-chloro-4-[4-fluoro-2-(hydroxymethyl)-1-(propan-2-yl)-1H-benzimidazol-6-yl]pyrimidin-2-yl}amino)-1-(methanesulfonyl)piperidin-3-ol], the results for the Ki on CDK4/Cyclin D1 and at CDK6/Cyclin D3 were 0.2 nM and 2.8 nM, respectively. Besides, the IC50 on CDK4 came out at 40.1 nM; at CDK6, 97.7 nM.

As for `CC(C)(C)n1cnc2c(F)cc(-c3nc(N[C@@H]4CCN(CCO)C[C@H]4O)ncc3Cl)cc21` [Example F05, (3R,4R)-4-{[4-(1-tert-butyl-4-fluoro-1H-benzimidazol-6-yl)-5-chloropyrimidin-2-yl]amino}-1-(2-hydroxyethyl)piperidin-3-ol formic acid salt], the Ki at CDK4/Cyclin D1 was 2.1 nM; on CDK6/Cyclin D3, 25.8 nM. Further, the IC50 on CDK4 was determined as 248 nM; at CDK6, 478 nM.

As for `CC(O)c1nc2c(F)cc(-c3nc(N[C@@H]4CCN(S(=O)(=O)C(F)F)C[C@H]4O)ncc3Cl)cc2n1C(C)C` (stereo partly drawn) [Example F10, (3R,4R)-4-({5-chloro-4-[4-flluoro-2-(1-hydroxyethyl)-1-(propan-2-yl)-1H-benzimidazol-6-yl]pyrimidin-2-yl}amino)-1-(difluoromethanesulfonyl)piperidin-3-ol], the Ki on CDK4/Cyclin D1 was determined as 0.5 nM. For the same compound, on CDK4, the IC50 turned out to be 41.3 nM.

Regarding `CC(C)n1c(CN2CC(O)C2)nc2c(F)cc(-c3nc(N[C@@H]4CCOC[C@H]4O)ncc3Cl)cc21` [Example H03, 1,5-anhydro-3-[(5-chloro-4-{4-fluoro-2-[(3-hydroxyazetidin-1-yl)methyl]-1-(propan-2-yl)-1H-benzimidazol-6-yl}pyrimidin-2-yl)amino]-2,3-dideoxy-D-threo-pentitol], the Ki at CDK4/Cyclin D1 was determined as 1.8 nM; on CDK6/Cyclin D3, 66.9 nM. For the same compound, the figures for the IC50 on CDK4 and at CDK6 were 155 nM and 423 nM, respectively.

Turning to `CC(C)(C)n1cnc2c(F)cc(-c3nc(N[C@@H]4CCN(S(C)(=O)=O)C[C@H]4O)ncc3F)cc21` [Example F15, (3R,4R)-4-{[4-(1-tert-butyl-4-fluoro-1H-benzimidazol-6-yl)-5-fluoropyrimidin-2-yl]amino}-1-(methanesulfonyl)piperidin-3-ol], the Ki on CDK6/Cyclin D3 is 1 nM. The IC50 on CDK4 worked out at 34.4 nM; at CDK6 it was 39.8 nM.

For the compound `CC(C)n1c(CN2CC(F)C2)nc2c(F)cc(-c3nc(N[C@@H]4CCOC[C@H]4O)ncc3Cl)cc21` [Example H06, 1,5-anhydro-3-[(5-chloro-4-{4-fluoro-2-[(3-fluoroazetidin-1-yl)methyl]-1-(propan-2-yl)-1H-benzimidazol-6-yl}pyrimidin-2-yl)amino]-2,3-dideoxy-D-threo-pentitol], the Ki at CDK4/Cyclin D1 was found to be 1.1 nM; at CDK6/Cyclin D3, 35.6 nM. Also, the IC50 at CDK4 was determined as 79.6 nM; on CDK6, 343 nM.

As to `CC(C)n1c(C(C)(C)O)nc2c(F)cc(-c3nc(N[C@@H]4CCN(S(C)(=O)=O)C[C@H]4O)ncc3Cl)cc21` [Example A91, (3R,4R)-4-({5-chloro-4-[4-fluoro-2-(2-hydroxypropan-2-yl)-1-(propan-2-yl)-1H-benzimidazol-6-yl]pyrimidin-2-yl}amino)-1-(methanesulfonyl)piperidin-3-ol], the figures for the Ki at CDK4/Cyclin D1 and on CDK6/Cyclin D3 were 0.1 nM and 1.7 nM, respectively. Further, the IC50 at CDK4 worked out at 14.9 nM; on CDK6 it was 25.7 nM.

For `CC(C)n1c([C@@H](C)O)nc2c(F)cc(-c3nc(N[C@@H]4CCN(S(C)(=O)=O)C[C@H]4O)ncc3Cl)cc21` [Example A93, (3R,4R)-4-[(5-chloro-4-{4-fluoro-2-[(1R)-1-hydroxyethyl]-1-(propan-2-yl)-1H-benzimidazol-6-yl}pyrimidin-2-yl)amino]-1-(methanesulfonyl)piperidin-3-ol], the Ki at CDK4/Cyclin D1 was 0.2 nM. On CDK4, the IC50 amounted to 34.7 nM.

As for `Cc1nc2c(F)cc(-c3nc(N[C@@H]4CCN(S(C)(=O)=O)C[C@H]4O)ncc3Cl)cc2n1CC(C)N` (stereo partly drawn) [Example A40, (3R,4R)-4-({4-[1-(2-aminopropyl)-4-fluoro-2-methyl-1H-benzimidazol-6-yl]-5-chloropyrimidin-2-yl}amino)-1-(methanesulfonyl)piperidin-3-ol], the Ki at CDK4/Cyclin D1 is 0.3 nM; on CDK6/Cyclin D3 it was 3.5 nM. The figures for the IC50 at CDK4 and on CDK6 were 85.5 nM and 346 nM, respectively.

`CC1(C)COCc2nc3c(F)cc(-c4nc(N[C@@H]5CCOC[C@H]5O)ncc4F)cc3n21` [Example A19]: the inhibitory constant (Ki) on CDK4/Cyclin D1 was found to be 0.9 nM; at CDK6/Cyclin D3, 14.6 nM. The IC50 on CDK4 came out at 69.1 nM; at CDK6, 318 nM.

On to `CC(C)n1cnc2c(F)cc(-c3nc(N[C@@H]4CCN(C(=O)C5(N)CC(F)(F)C5)C[C@H]4O)ncc3Cl)cc21` [Example F29, (1-amino-3,3-difluorocyclobutyl)[(3R,4R)-4-({5-chloro-4-[4-fluoro-1-(propan-2-yl)-1H-benzimidazol-6-yl]pyrimidin-2-yl}amino)-3-hydroxypiperidin-1-yl]methanone], for which the results for the inhibition constant (Ki) on CDK4/Cyclin D1 and on CDK6/Cyclin D3 were 1.8 nM and 23.3 nM, respectively. For the same compound, the concentration for half-maximal inhibition (IC50) at CDK4 amounted to 246 nM; on CDK6 it was 644 nM.

As to `CC(C)n1c(C(C)(C)N)nc2c(F)cc(-c3nc(N[C@@H]4CCOC[C@H]4O)ncc3Cl)cc21` [Example A41, 3-({4-[2-(2-aminopropan-2-yl)-4-fluoro-1-(propan-2-yl)-1H-benzimidazol-6-yl]-5-chloropyrimidin-2-yl}amino)-1,5-anhydro-2,3-dideoxy-D-threo-pentitol], the Ki was determined as 3.1 nM on CDK4/Cyclin D1 and 48.8 nM at CDK6/Cyclin D3. In addition, the IC50 at CDK4 amounted to 92.8 nM; on CDK6 it was 216 nM.

In the case of `CC(C)n1cnc2c(F)cc(-c3nc(N[C@@H]4CCN(C(=O)C5COC5)C[C@H]4O)ncc3Cl)cc21` [Example F18, [(3R,4R)-4-({5-chloro-4-[4-fluoro-1-(propan-2-yl)-1H-benzimidazol-6-yl]pyrimidin-2-yl}amino)-3-hydroxypiperidin-1-yl](oxetan-3-yl)methanone], the Ki at CDK4/Cyclin D1 amounted to 0.9 nM; on CDK6/Cyclin D3 it was 10.1 nM. The IC50 at CDK4 worked out at 31.7 nM.

On to `CC(C)n1c([C@@H](C)O)nc2c(F)cc(-c3nc(N[C@@H]4CCN(S(C)(=O)=O)C[C@@H]4O)ncc3Cl)cc21` (single isomer, unassigned) [Example F11], for which the Ki at CDK4/Cyclin D1 is 5.4 nM. Further, the IC50 on CDK4 came to 821 nM.

With `Cc1nc2ccc(-c3nc(N[C@@H]4CCN(S(C)(=O)=O)C[C@H]4O)ncc3F)cc2n1C(C)C` [Example A76, (3R,4R)-4-({5-fluoro-4-[2-methyl-1-(propan-2-yl)-1H-benzimidazol-6-yl]pyrimidin-2-yl}amino)-1-(methanesulfonyl)piperidin-3-ol], the Ki on CDK6/Cyclin D3 turned out to be 6.3 nM. Moreover, the IC50 at CDK6 came out at 242 nM.
